Drawing on US9579325B2, “Modulators of TNF-α signaling” (Genzyme Corporation, priority 2000, dated 2017), this text covers inhibition and IC50 for 37 compounds.

pIC50: −log10 of the molar value.

The test system of one assay is L929 cells. Nature of the assay: TNF High Throughput Screen (TNF-α driven apoptosis assay). It counts as cell-based, mouse. To be noted: Mus musculus, compound at 1 μM, human TNF-α + actinomycin D, read-out: TNFα % Inh. @ 1 μM. The source says:
Description of Table V: The results shown in Table V were obtained using the TNF-α assays performed as described in the protocols entitled “Method for TNF High Throughput Screen” and “Method for VCAM High Throughput Screen”, which are detailed below. These assays measure a cellular response to TNF-α stimulation, and the data published in the table are expressed as percentage inhibitions. Percentage inhibition is computed on a scale of 0 to 100% where 0 percent inhibition means the compound has no effect in the assay (the response is indistinguishable from TNF-α treatment alone), and 100% inhibition means that when the compound is present at the stated concentration, the response in the assay is the same as if TNF-α were not added. These two assays measure two different outcomes of TNF-α treatment, cell death and Vascular Cell Adhesion Molecule (VCAM) expression, and capture two of TNF-α's many biological effects. TNF-α induced apoptosis is a mechanism by which TNF-α production during immune/inflammatory responses can lead to direct cellular and tissue damage. TNF-α VCAM expression in endothelial cells is a response that allows leukocytes to leave the blood and enter a site of immune/inflammatory response. Both of these activities could lead to pathology in immune/inflammatory diseases. In the first column of the table, the percentage inhibition of the TNF-α driven apoptosis assay when the compounds are tested at 1 μM concentration is presented. The second column in the table lists the IC50 for the compound, a standard measure using a dilution series in the assay, and fitting a sigmoidal curve to the resulting dose-response curve. The IC50 is the concentration (derived analytically from the sigmoidal function) at which the compound would inhibit 50% of the response in the assay. The third and fourth column list the corresponding analysis for the TNF-α driven VCAM assay. In Table VI, data corresponding to the data in column 1 of Table V is shown, with human cells replacing the mouse cells used in the high throughput screen. […] As a consequence, the compounds will have use in treating more than one TNF-α mediated condition, and may be selected according to the manner in which the condition manifests. This corresponds to the use of these compounds in the treatment of human disease.
TNF High Throughput Screen.
• 1. Plate 4×10^4 L929 cells in 100 μl of complete EMEM in Costar 96 well plates in PM. • 2. The next day, pretreat with compound, inhibitor and control vehicle for 2 hours. • 3. After 2 hours pretreatment, add 10 μl 5 ng/ml human TNF-α and actinomycin D (40 μg/ml final concentration). • 4. Incubate overnight. • 5. In AM, remove supernatant. • 6. Wash on a plate washer (0.9% NaCl). • 7. Add 100 μl Crystal Violet 0.1% in 20% ETOH. • 8. Incubate at RT for 10 minutes. • 9. Wash on plate washer. • 10. Air dry wells at 37° C. • 11. Add 100 μl of methanol to each well. • 12. Shake plates on orbital shaker and read at 595 nm on plate reader. VCAM High Throughput Screen: Protocol: • 1. Plate Primary human umbilical vein endothelial cells at 1.8×10^4 cells/well in a 96-well tissue culture plate. • 2. Return Plates to 37° C. incubator for 48-72 hours before assay. • 3. On assay day, aspirate wells and add 1804, of endothelial growth cell medium (EGM) to each well. • 4. Add Compound to each well. • 5. Shake plates for 3 minutes. • 6. Incubate plate for 1 hour at 37° C. • 7. Add Tumor Necrosis Factor (TNF) at 1.0 ng/ml final concentration. • 8. Shake plates for 3 minutes. • 9. Incubate plate for 2 hours at 37° C. • 10. Remove plate from incubator and wash plate 3 times with phosphate buffered saline (PBS) using a plate washer. • 11. Add anti-VCAM antibody at 0.5 μg/ml final concentration. • 12. Incubate at 4° C. overnight. • 13. Wash 3 times with PBS on plate washer. • 14. Add goat anti-mouse horseradish peroxidase conjugate. • 15. Incubate at room temperature for one hour. • 16. Wash 3 times with PBS on plate washer. • 17. […]
`N#Cc1cccc(C(C(=O)NC(c2ccccc2)c2ccccc2)N(CCc2c[nH]cn2)C(=O)C(O)c2ccccc2)c1` (stereo not shown) [Compound 87]: the inhibition at 1 µM was found to be 50%.
Turning to `COc1cccc(C(=O)N(CCc2c[nH]cn2)C(C(=O)NCCC(c2ccccc2)c2ccccc2)c2cccc(C#N)c2)c1` (stereo not shown) [Compound 70], the inhibition at 1 µM was found to be 58%.
Turning to `N#Cc1cccc(C(C(=O)NC(c2ccccc2)c2ccccc2)N(CCc2c[nH]cn2)C(=O)c2ccccc2-c2ccccc2)c1` (stereo not shown) [Compound 88], the inhibition at 1 µM is 53%.
Take `COc1ccc(CCNC(=O)C(c2cccc(C#N)c2)N(CCc2c[nH]cn2)C(=O)CCC(C)=O)cc1` (stereo not shown) [Compound 73]: the inhibition at 1 µM came out at 76%.
Take `COc1ccc(CCNC(=O)C(c2cccc(C#N)c2)N(CCc2c[nH]cn2)C(=O)CCCc2c[nH]c3ccccc23)cc1` (stereo not shown) [Compound 76]: the inhibition at 1 µM stood at 56%.
With `N#Cc1cccc(C(C(=O)NCC(c2ccccc2)c2ccccc2)N(CCc2c[nH]cn2)C(=O)c2c[nH]nc2N)c1` (stereo not shown) [Compound 81], the inhibition at 1 µM amounted to 50%.
Regarding `N#Cc1cccc(C(C(=O)NC(Cc2ccccc2)c2ccccc2)N(CCc2c[nH]cn2)C(=O)c2ccccc2C(=O)c2ccc(Cl)cc2)c1` (stereo not shown) [Compound 64], the inhibition at 1 µM stood at 63%.
Still for that read-out and setting: next, `O=C(NCC(c1ccccc1)c1ccccc1)C(c1ccccc1)N(CCc1c[nH]cn1)C(=O)c1cccc2c1-c1ccccc1C2` (stereo not shown) [Compound 58]: 50%; `COc1ccc(CCNC(=O)C(c2cccc(C#N)c2)N(CCc2c[nH]cn2)C(=O)Cc2c[nH]c3ccccc23)cc1` (stereo not shown) [Compound 77]: 54%; `COc1ccc(CCNC(=O)C(c2cccc(C#N)c2)N(CCc2c[nH]cn2)C(=O)c2cccn2C)cc1` (stereo not shown) [Compound 71]: 57%.
Still for that read-out and setting: for `COc1ccc(CCNC(=O)C(c2cccc(C#N)c2)N(CCc2c[nH]cn2)C(=O)Cc2c[nH]c3ccc(Br)cc23)cc1` (stereo not shown) [Compound 78] the value was 60%; for `COc1ccc(CCNC(=O)C(c2cccc(C#N)c2)N(CCc2c[nH]cn2)C(=O)Cc2c(C)[nH]c3ccccc23)cc1` (stereo not shown) [Compound 75], 67%.
Same read-out and setting: next, `N#Cc1cccc(C(C(=O)NCCC(c2ccccc2)c2ccccc2)N(CCc2c[nH]cn2)C(=O)c2cccc3ccccc23)c1` (stereo not shown) [Compound 68]: 57%; `N#Cc1cccc(C(C(=O)NCC(c2ccccc2)c2ccccc2)N(CCc2c[nH]cn2)C(=O)CCCCc2ccccc2)c1` (stereo not shown) [Compound 60]: 50%.

Staying with this assay, now noted: Mus musculus, human TNF-α + actinomycin D, read-out: TNFα IC50.
Consider `O=C(c1ccccc1)c1ccccc1C(=O)N(CCc1c[nH]cn1)C(Cc1ccc(Cl)cc1)C(=O)NCC(c1ccccc1)c1ccccc1` (stereo not shown) [Compound 32], for which the pIC50 was 5.63.
As to `COc1ccc(CCNC(=O)C(c2cccc(C#N)c2)N(CCc2c[nH]cn2)C(=O)c2ccccc2C(=O)c2ccccc2)cc1` (stereo not shown) [Compound 18], the negative-log IC50 (pIC50) is 5.57.
For `O=C(c1ccccc1)c1ccccc1C(=O)N(CCc1c[nH]cn1)C(C(=O)NCC(c1ccccc1)c1ccccc1)c1ccc(-c2ccccc2)o1` (stereo not shown) [Compound 52], the negative logarithm of the IC50 (pIC50) is 5.46.
Turning to `O=C(c1ccccc1)c1ccccc1C(=O)N(CCc1c[nH]cn1)C(Cc1ccc(F)cc1)C(=O)NCC(c1ccccc1)c1ccccc1` (stereo not shown) [Compound 38], the pIC50 is 5.55.
Consider `Cn1cncc1CCN(C(=O)c1ccccc1C(=O)c1ccccc1)C(C(=O)NCC(c1ccccc1)c1ccccc1)c1cccc(C#N)c1` (stereo not shown) [Compound 14], for which the pIC50 is 5.75.
On the same count and under the same terms, for `Nc1nc(-c2ccccn2)nc(-n2nc(-c3ccc(Cl)cc3)nc2Cc2ccccc2)n1` [Compound 133, 4-[5-Benzyl-3-(4-chloro-phenyl)-[1,2,4]triazol-1-yl]-6-pyridin-2-yl-[1,3,5]triazin-2-ylamine] the value was 4.71.
For the compound `O=C(c1ccccc1)c1ccccc1C(=O)N(CCc1c[nH]cn1)C(C(=O)NCC(c1ccccc1)c1ccccc1)c1cccc(Cl)c1` (stereo not shown) [Compound 16], the pIC50 is 5.88.
As to `N#Cc1cccc(C(C(=O)NCC(c2ccccc2)c2ccccc2)N(CCn2ccnc2)C(=O)c2ccccc2C(=O)c2ccccc2)c1` (stereo not shown) [Compound 21], the pIC50 was 6.04.
Still for that read-out and setting: for `Cc1nn(-c2nc(N)nc(-c3ccccn3)n2)c(C)c1Cc1ccccc1` [Compound 142, 4-(4-Benzyl-3,5-dimethyl-pyrazol-1-yl)-6-pyridin-2-yl-[1,3,5]triazin-2-ylamine] the value was 6.82.
The same measure, in the same setting: next, `N#Cc1cccc(C(C(=O)NCC(c2ccccc2)c2ccccc2)N(CCc2c[nH]cn2)C(=O)c2ccccc2-c2cccs2)c1` (stereo not shown) [Compound 29]: 5.43; `CN(C)CCN(C(=O)c1ccccc1C(=O)c1ccccc1)C(C(=O)NCC(c1ccccc1)c1ccccc1)c1cccc(C#N)c1` (stereo not shown) [Compound 9]: 6.30.
Take `O=C(c1ccccc1)c1ccccc1C(=O)N(CCc1c[nH]cn1)C(Cc1ccccc1C(F)(F)F)C(=O)NCC(c1ccccc1)c1ccccc1` (stereo not shown) [Compound 27]: the pIC50 is 5.57.
On the same count and under the same terms, next, `N#Cc1ccc(C(C(=O)NCC(c2ccccc2)c2ccccc2)N(CCc2c[nH]cn2)C(=O)c2ccccc2C(=O)c2ccccc2)cc1` (stereo not shown) [Compound 51]: 5.45.
Still for that read-out and setting: for `CSc1ccc(C(C(=O)NCC(c2ccccc2)c2ccccc2)N(CCc2c[nH]cn2)C(=O)c2ccccc2C(=O)c2ccccc2)cc1` (stereo not shown) [Compound 12] the value was 5.29.
Still for that read-out and setting: next, `Cc1nn(-c2nccc(-c3ccccn3)n2)c(C)c1Oc1ccc(C(C)C)cc1` [Compound 97, 2-[4-(4-Isopropyl-phenoxy)-3,5-dimethyl-pyrazol-1-yl]-4-pyridin-2-yl-pyrimidine]: 6.40; `O=C(c1ccccc1)c1ccccc1C(=O)N(CCc1c[nH]cn1)C(C(=O)NCC(c1ccccc1)c1ccccc1)c1cccc(C(F)(F)F)c1` (stereo not shown) [Compound 17]: 5.82.
In the case of `Cc1nn(-c2nccc(-c3ccccn3)n2)c(C)c1Oc1ccc(CN2CCN(Cc3ccccc3)CC2)cc1` [Compound 104, 2-{4-[4-(4-Benzyl-piperazin-1-ylmethyl)-phenoxy]-3,5-dimethyl-pyrazol-1-yl}-4-pyridin-2-yl-pyrimidine], the negative logarithm of the IC50 (pIC50) was 7.30.
As for `COc1cccc(CC(C(=O)NCC(c2ccccc2)c2ccccc2)N(CCc2c[nH]cn2)C(=O)c2ccccc2C(=O)c2ccccc2)c1` (stereo not shown) [Compound 34], the pIC50 was 5.81.
Consider `COc1c(Sc2ccc(Cl)cc2)c(C)nn1-c1nccc(-c2ccccn2)n1` [Compound 148, 2-[4-(4-Chloro-phenylsulfanyl)-5-methoxy-3-methyl-pyrazol-1-yl]-4-pyridin-2-yl-pyrimidine], for which the pIC50 was 4.49.
Same read-out and setting: next, `O=C(c1ccccc1)c1ccccc1C(=O)N(CCc1c[nH]cn1)C(Cc1cccc(Cl)c1)C(=O)NCC(c1ccccc1)c1ccccc1` (stereo not shown) [Compound 31]: 5.47.
Still for that read-out and setting: for `N#Cc1cccc(C(C(=O)NCC(c2ccccc2)c2ccccc2)N(CCc2c[nH]cn2)C(=O)c2ccccc2-c2ccco2)c1` (stereo not shown) [Compound 22] the value was 5.41; for `N#Cc1cccc(C(C(=O)NCC(c2ccccc2)c2ccccc2)N(CCc2c[nH]cn2)C(=O)c2ccccc2C(=O)c2ccc(Cl)cc2)c1` (stereo not shown) [Compound 20], 6.52.

Still in this assay, the particulars now being: human TNF-α + actinomycin D, read-out: TNFα IC50.
On to `O=C(c1ccccc1)c1ccccc1C(=O)N(CCc1c[nH]cn1)[C@H](Cc1ccccc1)C(=O)NCC(c1ccccc1)c1ccccc1` [Compound 47, 2-Benzoyl-N-[(1′R)-1′(2,2′-diphenyl-ethylcarbamoyl)-2′-phenyl-ethyl]-N-[2-(1H-imidazol-4-yl)-ethyl]-benzamide], for which the pIC50 was 5.25.

The pIC50 is the negative decadic logarithm of the IC50, by convention in mol/L.
